From US11524966B1 (Valo Early Discovery, Inc., priority 2017, dated 2022)

Target: T1, USP28 (His-tagged USP28-FL-mammalian) (Homo sapiens, UniProt Q96RU2)
T1 construct: Expression of USP28 (1-1077)-TEV-6*His (pTT5 vector); made in house; host or cells: Expi293f cells (pTT5 vector)
T1 sequence (Q96RU2 1-1077): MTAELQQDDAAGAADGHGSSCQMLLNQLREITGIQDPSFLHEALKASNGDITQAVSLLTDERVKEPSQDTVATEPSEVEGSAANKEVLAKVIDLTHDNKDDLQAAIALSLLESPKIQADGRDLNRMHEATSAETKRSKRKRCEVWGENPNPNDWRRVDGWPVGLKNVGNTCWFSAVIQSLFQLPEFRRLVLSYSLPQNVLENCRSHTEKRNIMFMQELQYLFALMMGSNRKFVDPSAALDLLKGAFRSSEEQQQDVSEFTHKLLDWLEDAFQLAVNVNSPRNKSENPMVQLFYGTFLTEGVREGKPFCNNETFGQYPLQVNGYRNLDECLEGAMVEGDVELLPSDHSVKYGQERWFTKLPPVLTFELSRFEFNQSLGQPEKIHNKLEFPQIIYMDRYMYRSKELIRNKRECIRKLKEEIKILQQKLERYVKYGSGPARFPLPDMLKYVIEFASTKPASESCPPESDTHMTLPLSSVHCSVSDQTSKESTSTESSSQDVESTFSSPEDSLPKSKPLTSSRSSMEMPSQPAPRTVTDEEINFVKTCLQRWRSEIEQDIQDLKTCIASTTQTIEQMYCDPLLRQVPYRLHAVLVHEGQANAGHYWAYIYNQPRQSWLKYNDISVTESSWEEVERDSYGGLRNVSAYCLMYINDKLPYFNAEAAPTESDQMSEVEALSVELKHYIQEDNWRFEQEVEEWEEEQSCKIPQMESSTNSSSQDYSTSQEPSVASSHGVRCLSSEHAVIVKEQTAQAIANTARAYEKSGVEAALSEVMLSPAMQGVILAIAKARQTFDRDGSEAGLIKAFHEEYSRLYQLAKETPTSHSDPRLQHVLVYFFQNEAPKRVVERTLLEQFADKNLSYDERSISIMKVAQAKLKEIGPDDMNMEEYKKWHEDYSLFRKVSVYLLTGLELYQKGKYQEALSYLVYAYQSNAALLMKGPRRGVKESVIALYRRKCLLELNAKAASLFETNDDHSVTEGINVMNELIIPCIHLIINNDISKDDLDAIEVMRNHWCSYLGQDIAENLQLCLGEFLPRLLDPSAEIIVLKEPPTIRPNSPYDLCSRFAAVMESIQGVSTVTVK
Test: Ubiquitin-Rhodamine 110 Assay for USP28 Activity, Example A-1(a)
Type: biochemical
Conditions: Ubiquitin-Rhodamine 110 assay, Example A-1(a); read-out: USP28 A-1(a) IC50 range
Summary of the method: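 Full-length His-tagged human USP28 (1-1077, Expi293f-expressed), […], with 25 nM Ub-Rh110 (<<Km) in pH 8.0 Tris buffer with BME, BGG, Triton X-100. 10-point dilutions (25 μM-1.3 nM), 45 min at room temperature, citric acid stop, fluorescence 485/535 nm; IC50 by 4-parameter fit.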

| SMILES | IC50 |
| --- | --- |
| Cc1ccc2c(N)c(C(=O)N[C@@H]3Cc4ccc(N5CCNCC5)nc4[C@@H](C)C3)sc2n1 (single isomer, unassigned) [Example 205] | 200 to 2000 nM |
| Cc1cc(C)c2c(N)c(C(=O)N[C@H]3COc4cc(N5CC[C@H]6CNC[C@H]65)cc(F)c4C3)sc2n1 (single isomer, unassigned) [Example 222] | 1 to 50 nM |
| Cc1cc(C)c2c(N)c(C(=O)N[C@H]3COc4cc(N5CC[C@@H]6CNC[C@@H]65)cc(F)c4C3)sc2n1 (single isomer, unassigned) [Example 223] | 1 to 50 nM |
| CO[C@H]1CN(c2cc3c(cc2C#N)C[C@@H](NC(=O)c2sc4nc(C)ccc4c2N)CO3)C[C@@H]1N [Example 177, 3-amino-N-[(3R)-7-[(3S,4S)-3-amino-4-methoxypyrrolidin-1-yl]-6-cyano-3-4-dihydro-2H-1-benzopyran-3-yl]-6-methylthieno[2,3-b]pyridine-2-carboxamide] | 1 to 50 nM |
| CO[C@H]1CN(c2ccc3c(c2C#N)CC[C@H](NC(=O)c2sc4nc(C)ccc4c2N)C3)C[C@@H]1N [Example 178, 3-amino-N-[(2S)-6-[(3S,4S)-3-amino-4-methoxypyrrolidin-1-yl]-5-cyano-1,2,3,4-tetrahydronaphthalen-2-yl]-6-methylthieno[2,3-b]pyridine-2-carboxamide] | 1 to 50 nM |
| CO[C@H]1CN(c2ccc3c(n2)OC[C@H](NC(=O)c2sc4nc(C)cnc4c2N)C3)C[C@@H]1N [Example 181, 7-amino-N-[(3R)-7-[(3S,4S)-3-amino-4-methoxypyrrolidin-1-yl]-2H,3H,4H-pyrano[2,3-b]pyridin-3-yl]-3-methylthieno[2,3-b]pyrazine-6-carboxamide] | 200 to 2000 nM |
| CCO[C@H]1CN(c2ccc3c(n2)OC[C@H](NC(=O)c2sc4nc(C)cnc4c2N)C3)C[C@@H]1N [Example 182, 7-amino-N-[(3R)-7-[(3S,4S)-3-amino-4-ethoxypyrrolidin-1-yl]-2H,3H,4H-pyrano[2,3-b]pyridin-3-yl]-3-methylthieno[2,3-b]pyrazine-6-carboxamide] | 200 to 2000 nM |
| CO[C@H]1CN(c2nc3c(cc2F)C[C@@H](NC(=O)c2sc4nc(C)ccc4c2N)CC3)C[C@@H]1N [Example 183, 3-amino-N-[(6S)-2-[(3S,4S)-3-amino-4-methoxypyrrolidin-1-yl]-3-fluoro-5,6,7,8-tetrahydroquinolin-6-yl]-6-methylthieno[2,3-b]pyridine-2-carboxamide] | 50 to 200 nM |
| Cc1ccc2c(N)c(C(=O)N[C@H]3COc4cc(N5CCO[C@H]6CNC[C@H]65)ccc4C3)sc2n1 [Example 184, N-[(3R)-7-[(4aR, 7aS)-octahydropyrrolo[3,4-b]morpholin-4-yl]-3,4-dihydro-2H-1-benzopyran-3-yl]-3-amino-6-methylthieno[2,3-b]pyridine-2-carboxamide] | 1 to 50 nM |
| Cc1ccc2c(N)c(C(=O)N[C@H]3COc4cc(N5CCO[C@@H]6CNC[C@@H]65)ccc4C3)sc2n1 [Example 185, N-[(3R)-7-[(4aS,7aR)-octahydropyrrolo[3,4-b]morpholin-4-yl]-3,4-dihydro-2H-1-benzopyran-3-yl]-3-amino-6-methylthieno[2,3-b]pyridine-2-carboxamide] | 1 to 50 nM |
| CO[C@H]1CN(c2ccc3c(c2)CC[C@H](NC(=O)c2cnc4c(c2)C2CC2CN4)C3)C[C@@H]1N (stereo partly drawn) [Example 188, N-[(2S)-6-[(3S,4S)-3-amino-4-methoxypyrrolidin-1-yl]-1,2,3,4-tetrahydronaphthalen-2-yl]-5H,6H,6aH,7H,7aH-cyclopropa[c]1,8-naphthyridine-2-carboxamide] | 200 to 2000 nM |
| CO[C@H]1CN(c2ccc3c(c2)CC[C@H](NC(=O)c2cnc4c(c2)[C@@H]2C[C@@H]2CN4)C3)C[C@@H]1N [Example 189, (6aS,7aR)-N-[(2S)-6-[(3S,4S)-3-amino-4-methoxypyrrolidin-1-yl]-1,2,3,4-tetrahydronaphthalen-2-yl]-5H,6H,6aH,7H,7aH-cyclopropa[c]1,8-naphthyridine-2-carboxamide] | 200 to 2000 nM |
| CO[C@H]1CN(c2ccc3c(c2)CC[C@H](NC(=O)c2cnc4c(c2)[C@H]2C[C@H]2CN4)C3)C[C@@H]1N [Example 190, (6aR,7aS)-N-[(2S)-6-[(3S,4S)-3-amino-4-methoxypyrrolidin-1-yl]-1,2,3,4-tetrahydronaphthalen-2-yl]-5H,6H,6aH,7H,7aH-cyclopropa[c]1,8-naphthyridine-2-carboxamide] | > 2000 nM |
| O=C(N[C@H]1CCc2cc(N3CC4CCC(C3)N4)cc(F)c2C1)c1cnc2c(c1)[C@@H]1C[C@@H]1CN2 [Example 191, (6aS,7aR)-N-[(2S)-6-{3,8-diazabicyclo[3.2.1]octan-3-yl}-8-fluoro-1,2,3,4-tetrahydronaphthalen-2-yl]-5H,6H,6aH,7H,7aH-cyclopropa[c]1,8-naphthyridine-2-carboxamide] | > 2000 nM |
| O=C(N[C@H]1CCc2cc(N3CC4CCC(C3)N4)cc(F)c2C1)c1cnc2c(c1)[C@H]1C[C@H]1CN2 [Example 192, (6aR,7aS)-N-[(2S)-6-{3,8-diazabicyclo[3.2.1]octan-3-yl}-8-fluoro-1,2,3,4-tetrahydronaphthalen-2-yl]-5H,6H,6aH,7H,7aH-cyclopropa[c]1,8-naphthyridine-2-carboxamide] | 50 to 200 nM |
| O=C(N[C@@H]1CCc2cc(N3CC4CCC(C3)N4)cc(F)c2C1)c1cnc2c(c1)[C@@H]1C[C@@H]1CN2 [Example 193, (6aS,7aR)-N-[(2R)-6-{3,8-diazabicyclo[3.2.1]octan-3-yl}-8-fluoro-1,2,3,4-tetrahydronaphthalen-2-yl]-5H,6H,6aH,7H,7aH-cyclopropa[c]1,8-naphthyridine-2-carboxamide] | 200 to 2000 nM |
| O=C(N[C@@H]1CCc2cc(N3CC4CCC(C3)N4)cc(F)c2C1)c1cnc2c(c1)[C@H]1C[C@H]1CN2 [Example 194, (6aR,7aS)-N-[(2R)-6-{3,8-diazabicyclo[3.2.1]octan-3-yl}-8-fluoro-1,2,3,4-tetrahydronaphthalen-2-yl]-5H,6H,6aH,7H,7aH-cyclopropa[c]1,8-naphthyridine-2-carboxamide] | 200 to 2000 nM |
| N#Cc1c(N2CC3CCC(C2)N3)cc(F)c2c1CC[C@H](NC(=O)c1cnc3c(c1)[C@@H]1C[C@@H]1CN3)C2 [Example 195, (6aS,7aR)-N-[(2S)-5-cyano-6-{3,8-diazabicyclo[3.2.1]octan-3-yl}-8-fluoro-1,2,3,4-tetrahydronaphthalen-2-yl]-5H,6H,6aH,7H,7aH-cyclopropa[c]1,8-naphthyridine-2-carboxamide] | 1 to 50 nM |
| N#Cc1c(N2CC3CCC(C2)N3)cc(F)c2c1CC[C@H](NC(=O)c1cnc3c(c1)[C@H]1C[C@H]1CN3)C2 [Example 196, (6aR,7aS)-N-[(2S)-5-cyano-6-{3,8-diazabicyclo[3.2.1]octan-3-yl}-8-fluoro-1,2,3,4-tetrahydronaphthalen-2-yl]-5H,6H,6aH,7H,7aH-cyclopropa[c]1,8-naphthyridine-2-carboxamide] | > 2000 nM |
| N#Cc1c(N2CC3CCC(C2)N3)cc(F)c2c1CC[C@@H](NC(=O)c1cnc3c(c1)[C@@H]1C[C@@H]1CN3)C2 [Example 197, (6aS,7aR)-N-[(2R)-5-cyano-6-{3,8-diazabicyclo[3.2.1]octan-3-yl}-8-fluoro-1,2,3,4-tetrahydronaphthalen-2-yl]-5H,6H,6aH,7H,7aH-cyclopropa[c]1,8-naphthyridine-2-carboxamide] | > 2000 nM |
| N#Cc1c(N2CC3CCC(C2)N3)cc(F)c2c1CC[C@@H](NC(=O)c1cnc3c(c1)[C@H]1C[C@H]1CN3)C2 [Example 198, (6aR,7aS)-N-[(2R)-5-cyano-6-{3,8-diazabicyclo[3.2.1]octan-3-yl}-8-fluoro-1,2,3,4-tetrahydronaphthalen-2-yl]-5H,6H,6aH,7H,7aH-cyclopropa[c]1,8-naphthyridine-2-carboxamide] | 200 to 2000 nM |
| CO[C@H]1CN(c2cc3c(c(F)c2C#N)C[C@@H](NC(=O)c2sc4nc(C)cnc4c2N)CO3)C[C@@H]1N [Example 199, 7-amino-N-[(3R)-7-[(3S,4S)-3-amino-4-methoxypyrrolidin-1-yl]-6-cyano-5-fluoro-3,4-dihydro-2H-1-benzopyran-3-yl]-3-methylthieno[2,3-b]pyrazine-6-carboxamide] | 1 to 50 nM |
| CO[C@H]1CN(c2cc3c(c(F)c2C#N)C[C@@H](NC(=O)c2sc4nc(C)ccc4c2N)CO3)C[C@@H]1N [Example 200] | 1 to 50 nM |
